# Test results: patent US4839374A, “4-((Bicyclic heterocyclyl)-methyl and -hetero)-piperidines” (Janssen Pharmaceutica, N.V., priority 1987, dated 1989)
# Test system: compound 48/80-induced lethality
# Assay: Protection of rats from compound 48/80-induced lethality
# Assay type: in vivo, rats of an inbred Wistar strain
# Details: Rattus norvegicus, 4 h, read-out: Compound 48/80 lethality test in rats ED50, s.c. or p.o. 1 h before compound 48/80 0.5 mg/kg i.v.; protection of 50% of animals, survival after 4 hours
# Method: Protection of rats from compound 48/80-induced lethality
# The protection from compound 48/80-induced lethal circulatory collapse appears to be a simple way of evaluating quantitatively the antihistaminic activity of test compounds. Male rats of an inbred Wistar strain, weighing 240-260 g were used in the experiment. After overnight starvation the rats were transferred to conditioned laboratories (temp.=21±1° C., relative humidity=65+5%). The rats were treated subcutaneously or orally with a test compound or with the solvent (NaCl solution, 0.9%). […] Survival after 4 hours is therefore considered to be a safe criterion of a protective effect of drug administration. The ED50 -values of the compounds of formula (I) are listed in the first column of tables 1 to 4. Said ED50 -values are the values in mg/kg body weight at which the tested compounds protect 50% of the tested animals against compound 48/80-induced lethality. The compounds of formula (I) and the pharmaceutically acceptable acid addition salts thereof are also potent serotonin-antagonists. The potency of the subject compounds as serotonin-antagonists is clearly evidenced by the results obtained in the following tests wherein the antagonistic activity of the subject compounds on the effect of serotonin is examined.
row,Compound,ED50 [mg/kg]
1,CNc1ccccc1C(=O)NCCN1CCC(Cc2nc3cccnc3n2Cc2ccc(F)cc2)CC1 [Compound 470],0.04
2,"OCCN1CCC(Sc2nc3ccccc3n2Cc2ccc(F)cc2)CC1 [Compound 104, 4-[[1-[(4-fluorophenyl)-methyl]-1H-benzimidazol-2-yl]thio]-1-piperidineethanol]",0.08
3,O=c1oc2ccccc2cc1CCN1CCC(Cc2nc3ccccc3n2Cc2ccc(F)cc2)CC1 [Compound 161],0.04
4,Cc1nc2scc(C)n2c(=O)c1CCN1CCC(Cc2nc3ccccc3n2Cc2ccco2)CC1 [Compound 216],0.04
5,CC(C)NC(=O)CN1CCC(Cc2nc3ccccc3n2Cc2ccc(F)cc2)CC1 [Compound 134],0.04
6,"COc1ccc(CCN2CCC(Cc3nc4ncccc4n3Cc3ccc(F)cc3)CC2)cc1 [Compound 203, 1-[(4-fluorophenyl)methyl]-2-[[1-[2-(4-methoxyphenyl)ethyl]-4-piperidinyl]methyl]-1H-imidazo-[4,5-b]pyridine]",0.04
7,c1cnc(NCCN2CCC(Cc3nc4cccnc4n3Cc3ccco3)CC2)nc1 [Compound 339],0.01
8,Fc1ccc(Cn2c(CC3CCN(C4CCCCC4)CC3)nc3cccnc32)cc1 [Compound 98],0.04
9,"Cc1nc2n(c(=O)c1CCN1CCC(Cc3nc4cccnc4n3Cc3ccc(F)cc3)CC1)CCCS2 [Compound 205, 7-[2-[4-[[3-[(4-fluorophenyl)methyl]-3H-imidazo[4,5-b]pyridin-2-yl]methyl]-1-piperidinyl]ethyl]-3,4-dihydro-8-methyl-2H,6H-pyrimido[2,1-b][1,3]thiazin-6-one]",0.08
10,CN1CCC(Sc2nc3ccccc3n2Cc2ccc(F)cc2)CC1 [Compound 96],0.04
11,"Cc1ccc(Cn2c(CC3CCN(C)CC3)nc3ccccc32)cc1 [Compound 81, 1-[(4-methylphenyl)methyl]-2-[(1-methyl-4-piperidinyl)methyl]-1H-benzimidazole]",0.08
12,Fc1ccc(Cn2c(CC3CCN(CCSc4ccccc4)CC3)nc3ccccc32)cc1 [Compound 129],0.16
13,O=[N+]([O-])c1ccccc1NCCN1CCC(Cc2nc3ccccc3n2Cc2ccc(F)cc2)CC1 [Compound 366],0.31
14,"Fc1ccc(Cn2c(CC3CCN(CCNCc4ccccn4)CC3)nc3ccccc32)cc1 [Compound 427, N-[2-[4-[[1-[(4-fluorophenyl)methyl]-1H-benzimidazol-2-yl]methyl]-1-piperidinyl]ethyl]-2-pyridinemethanamine]",0.16
15,S=C=NCCN1CCC(Cc2nc3cccnc3n2Cc2cccs2)CC1 [Compound 402],0.04
16,O=S(=O)(CCN1CCC(Cc2nc3ccccc3n2Cc2ccc(F)cc2)CC1)c1ccccc1 [Compound 130],0.16
17,"Fc1ccc(Cn2c(CC3CCN(Cc4ccccc4)CC3)nc3ccncc32)cc1 [Compound 25, 3-[(4-fluorophenyl)methyl]-2-[[1-(phenylmethyl)-4-piperidinyl]-methyl]-3H-imidazo[4,5-c]pyridine]",0.16
18,"Nc1ccccc1C(=O)NCCN1CCC(Cc2nc3ccccc3n2Cc2ccco2)CC1 [Compound 466, 2-amino-N-[2-[4-[[1-(2-furanylmethyl)-1H-benzimidazol-2-yl]methyl]-1-piperidinyl]ethyl]benzamide]",0.02
19,O=c1oc2ccccc2cc1CCN1CCC(Cc2nc3ccccc3n2Cc2ccco2)CC1 [Compound 165],0.02
20,"Fc1ccc(Cn2c(OC3CCN(CCOc4ncccn4)CC3)nc3ccccc32)cc1 [Compound 390, 1-[(4-fluorophenyl)methyl]-2-[[1-[2-(2-pyrimidinyloxy)ethyl]-4-piperidinyl]oxy]-1H-benzimidazole]",0.04
21,N#CCN1CCC(Cc2nc3ccccc3n2Cc2ccccc2)CC1 [Compound 297],0.08
22,COc1ccc(CCN2CCC(Cc3nc4cccnc4n3Cc3ccccn3)CC2)cc1 [Compound 234],0.02
23,Cn1c(=O)n(CCN2CCC(Cc3nc4ccccc4n3Cc3ccco3)CC2)c(=O)c2ccccc21 [Compound 221],0.04
24,"c1ccc(Cn2c(CC3CCNCC3)nc3ccccc32)cc1 [Compound 40, 1-(phenylmethyl)-2-(4-piperidinylmethyl)-1H-benzimidazole]",0.08
25,CC(C)N1CCC(Cc2nc3cccnc3n2Cc2ccc(F)cc2)CC1 [Compound 89],0.04

row,Compound,ED50 [mg/kg]
1,Fc1ccc(Cn2c(OC3CCN(CCNc4nccs4)CC3)nc3ccccc32)cc1 [Compound 355],0.08
2,"CCOC(=O)N1CCC(Cc2nc3ccccc3n2Cc2cccs2)CC1 [Compound 59, ethyl 4-[[1-(2-thienylmethyl)-1H-benzimidazol-2-yl]methyl]-1-piperidinecarboxylate]",0.02
3,O=c1[nH]c2ccccc2c(=O)n1CCN1CCC(Cc2nc3cccnc3n2Cc2ccco2)CC1 [Compound 171],0.08
4,CC(C)N1CCC(Cc2nc3ccccc3n2Cc2ccc(F)cc2)CC1 [Compound 83],0.01
5,Cc1nc2n(c(=O)c1CCN1CCC(Cc3nc4ccccc4n3Cc3ccc(F)cc3)CC1)CCCS2 [Compound 158],0.04
6,"Nc1ccccc1C(=O)NCCN1CCC(Oc2nc3ccccc3n2Cc2ccc(F)cc2)CC1 [Compound 480, 2-amino-N-[2-[4-[[1-[(4-fluorophenyl)methyl]-1H-benzimidazol-2-yl]oxy]-1-piperidinyl]ethyl]benzamide]",0.02
7,"C=CCN1CCC(Cc2nc3cccnc3n2Cc2ccc(F)cc2)CC1 [Compound 142, 3-[(4-fluorophenyl)methyl]-2-[[1-(2-propenyl)-4-piperidinyl]methyl]-3H-imidazo-[4,5-b]pyridine]",0.02
8,"O=C(NCCN1CCC(Cc2nc3ccccc3n2Cc2ccc(F)cc2)CC1)c1cc(O)c2ccccc2n1 [Compound 444, N-[2-[4-[[1-[(4-fluorophenyl)methyl]-1H-benzimidazol-2-yl]methyl]-1-piperidinyl]ethyl]-4-hydroxy-2-quinolinecarboxamide]",0.16
9,"CCNC(=O)NCCN1CCC(Cc2nc3cccnc3n2Cc2ccc(F)cc2)CC1 [Compound 429, N-ethyl-N'-[2-[4-[[3-[(4-fluorophenyl)methyl]-3H-imidazo[4,5-b]pyridin-2-yl]-methyl]-1-piperidinyl]ethyl]urea]",0.02
10,"COc1ccc(CCN2CCC(Cc3nc4ccncc4n3Cc3ccc(F)cc3)CC2)cc1 [Compound 204, 3-[(4-fluorophenyl)methyl]-2-[[1-[2-(4-methoxyphenyl)ethyl]-4-piperidinyl]methyl]-3H-imidazo-[4,5-c]pyridine]",0.08
11,"O=C(c1ccco1)N(CCN1CCC(Cc2nc3ccccc3n2Cc2ccco2)CC1)c1ncccn1 [Compound 509, N-[2-[4-[[1-(2-furanylmethyl)-1H-benzimidazol-2-yl]methyl]-1-piperidinyl]-ethyl]-N-(2-pyrimidinyl)-2-furancarboxamide]",0.02
12,"CNCCN1CCC(Cc2nc3ccccc3n2Cc2ccc(F)cc2)CC1 [Compound 513, 4[[1-[(4-fluorophenyl)methyl]-1H-benzimidazol-2-yl]methyl]-N-methyl-1-piperidineethanamine]",0.08
13,N#CCN1CCC(Cc2nc3cccnc3n2Cc2ccc(F)cc2)CC1 [Compound 290],0.08
14,"Cn1ccnc1NCCN1CCC(Cc2nc3ccccc3n2Cc2ccc(F)cc2)CC1 [Compound 452, 4-[[1-[(4-fluorophenyl)methyl]-1H-benzimidazol-2-yl]methyl]-N-(1-methyl-1H-imidazol-2-yl)-1-piperidineethanamine]",0.16
15,"COc1ccc(Cn2c(CC3CCN(CCO)CC3)nc3ccccc32)cc1 [Compound 110, 4-[[1-[(4-methoxyphenyl)methyl]-1H-benzimidazol-2-yl]methyl]-1-piperidineethanol]",0.02
16,Fc1ccc(Cn2c(CC3CCN(CCc4cccs4)CC3)nc3cccnc32)cc1 [Compound 117],0.01
17,OCCN1CCC(Cc2nc3ccccc3n2Cc2ccccc2)CC1 [Compound 112],0.08
18,"Fc1ccc(Cn2c(CC3CCN(Cc4ccccc4)CC3)nc3ncccc32)cc1 [Compound 23, 1-[(4-fluorophenyl)methyl]-2-[[1-(phenylmethyl)-4-piperidinyl]methyl]-1H-imidazo[4,5-b]pyridine]",0.08
19,CCOC(=O)NCCN1CCC(Cc2nc3ccccc3n2Cc2cscn2)CC1 [Compound 248],0.04
20,"O=c1[nH]c2ccccc2c(=O)n1CCCCN1CCC(Cc2nc3ccccc3n2Cc2ccco2)CC1 [Compound 490, 3-[4-[4-[[1-(2-furanylmethyl)-1H-benzimidazol-2-yl]methyl]-1-piperidinyl]butyl]-2,4(1H,3H)-quinazolinedione]",0.31
21,"c1coc(Cn2c(CC3CCN(CCNc4nccs4)CC3)nc3cccnc32)c1 [Compound 352, 4-[[3-(2-furanylmethyl)-3H-imidazo[4,5-b]pyridin-2-yl]methyl]-N-(2-thiazolyl)-1-piperidineethanamine]",0.01
22,"Cc1ccc(Cn2c(CC3CCN(CCO)CC3)nc3ccccc32)cc1 [Compound 113, 4-[[1-[(4-methylphenyl)methyl]-1H-benzimidazol-2-yl]methyl]-1-piperidineethanol]",0.08
23,CCn1nnnc1SCCN1CCC(Cc2nc3ccccc3n2Cc2ccc(F)cc2)CC1 [Compound 181],0.04
24,Fc1ccc(Cn2c(CC3CCN(CCNc4ccncn4)CC3)nc3ccccc32)cc1 [Compound 501],0.04
